# Experimental data as given in patent CN1063108A, “三氟甲基酮衍生物及其制备方法和用途” (Fujisawa Pharmaceutical Co Ltd, priority 1990, dated 1992).
# Numbered stars: 1 amine (or outer) side, 2 acyl side, 3 side chain; on linkers, the order of the positions; unused ones are H or OH. Square brackets hold non-standard residues; d marks the D form. Peptide text beside a SMILES is read from it. * marks the point of attachment. ξ: configuration not given here. 4Abz = Nc1ccc(C(=O)O)cc1; CO = O=C([*:1])[*:2]; ξV = CC(C)C(N)C(=O)O; CF3 = FC(F)(F)*
# What was measured:
# [1] = tested on: human sputum elastase-induced lung hemorrhage in hamsters; assay: Elastase-induced lung hemorrhage (hemoglobin in BAL cells, OD 541 nm); assay type: in vivo, hamster; conditions: for Hemorrhage (OD541nm) / % inhibition of lung hemorrhage: 5 min before elastase; for Hemorrhage (OD541nm): BAL 3 h later; for ED50, inhibition of lung hemorrhage: intratracheal, 5 min pre-dose
# [2] = tested on: HSE-induced paw edema in C57BL mice; assay: Human sputum elastase-induced mouse paw edema; assay type: in vivo; conditions: for Footpad thickness (difference right-left hind paw): 15 min before HSE 20 μg/site, measured 2 h after HSE
# [3] = tested on: PPE-induced emphysema in Golden Syrian hamsters; assay: Experimentally induced (porcine pancreatic elastase) emphysema in hamsters, lung mechanics; assay type: in vivo, hamster; conditions: for Cst (quasi-static lung compliance) / VC (vital capacity): 5 min before PPE 100 μg/site, 3 weeks later
# [4] = 1 μg/site intratracheal, listed as 13
# [5] = 10 μg/site intratracheal, listed as 13
# [6] = 100 μg/site intratracheal, listed as 13
# [7] = 1 μg/site intratracheal, listed as 19
# [8] = 10 μg/site intratracheal, listed as 19
# [9] = 100 μg/site intratracheal, listed as 19
smiles,measurement,setting,value
"CC(C)C(NC(=O)[C@@H]1CCCN1C(=O)[C@@H](NC(=O)c1ccc(C(=O)NCC(=O)O)cc1)C(C)C)C(=O)C(F)(F)F (stereo partly drawn) [实施例13, 3(RS)-[[4-(羧基甲基氨基羰基)苯基羰基]-L-缬氨酰基-L-脯氨酰基]氨基-1，1，1-三氟-4-甲基-2-氧代戊烷]",Hemorrhage (OD541nm),[1]; [4],11.63±1.99 OD541nm
same,% inhibition of lung hemorrhage,[1]; [4],21.6%
same,Hemorrhage (OD541nm),[1]; [5],4.217±1.02 OD541nm
same,% inhibition of lung hemorrhage,[1]; [5],74.5%
same,Hemorrhage (OD541nm),[1]; [6],0.6384±0.222 OD541nm
same,% inhibition of lung hemorrhage,[1]; [6],100.0%
same,"ED50, inhibition of lung hemorrhage",[1]; listed as 13,3.0 μg/位点
"CC(C)C(NC(=O)[C@@H]1CCCN1C(=O)[C@@H](NC(=O)c1ccc(C(=O)NCC(=O)O)cc1)C(C)C)C(=O)C(F)(F)F (stereo partly drawn) [实施例19, 3(RS)-[[4-(羧甲基氨基羰基)苯基羰基]-L-缬氨酰基-L-脯氨酰基]氨基-1，1，1-三氟-4-甲基-2-氧代戊烷]",% inhibition of paw edema,[2]; 1 mg/Kg s.c.,6.4%
same,Footpad thickness (difference right-left hind paw),[2]; 1 mg/Kg s.c.,43.8±5.67 ×10-2mm
same,% inhibition of paw edema,[2]; 10 mg/Kg s.c.,20.9%
same,Footpad thickness (difference right-left hind paw),[2]; 10 mg/Kg s.c.,37.0±13.41 ×10-2mm
same,% inhibition of paw edema,[2]; 100 mg/Kg s.c.,42.3%
same,Footpad thickness (difference right-left hind paw),[2]; 100 mg/Kg s.c.,27.0±4.66 ×10-2mm
same,"Cst, % inhibition",[3]; 1 μg/site intratracheal,15%
same,"VC, % inhibition",[3]; 1 μg/site intratracheal,12%
same,Cst (quasi-static lung compliance),[3]; 1 μg/site intratracheal,1.39±0.05 ml/cm H2O
same,VC (vital capacity),[3]; 1 μg/site intratracheal,7.0 ± 0.1 mL
same,"Cst, % inhibition",[3]; 10 μg/site intratracheal,84%
same,"VC, % inhibition",[3]; 10 μg/site intratracheal,65%
same,Cst (quasi-static lung compliance),[3]; 10 μg/site intratracheal,0.70±0.04 ml/cm H2O
same,VC (vital capacity),[3]; 10 μg/site intratracheal,5.8 ± 0.1 mL
same,"Cst, % inhibition",[3]; 100 μg/site intratracheal,100%
same,"VC, % inhibition",[3]; 100 μg/site intratracheal,97%
same,Cst (quasi-static lung compliance),[3]; 100 μg/site intratracheal,0.53±0.02 ml/cm H2O
same,VC (vital capacity),[3]; 100 μg/site intratracheal,5.0 ± 0.1 mL
same,Potency compared with prior-art compounds by Cst and VC (in words),[3]; based on Cst and VC values,效力优于先有技术化合物A和B
same,Effect of pretreatment on PPE-induced increase in lung mechanics (in words),"[3]; dose-related, intratracheal pretreatment",防止了PPE诱发的肺力学增加
same,Hemorrhage (OD541nm),[1]; [7],11.59±1.40 OD541nm
same,% inhibition of lung hemorrhage,[1]; [7],10.8%
same,Hemorrhage (OD541nm),[1]; [8],1.663±0.690 OD541nm
same,% inhibition of lung hemorrhage,[1]; [8],93.1%
same,Hemorrhage (OD541nm),[1]; [9],0.2141±0.020 OD541nm
same,% inhibition of lung hemorrhage,[1]; [9],105.2%
same,"ED50, inhibition of lung hemorrhage",[1]; listed as 19,2.4 μg/位点
"CC(C)C(NC(=O)[C@@H]1CCCN1C(=O)[C@@H](NC(=O)c1ccc(C(=O)NCCN2CCOCC2)cc1)C(C)C)C(=O)C(F)(F)F.Cl (stereo partly drawn) [实施例21, 3(RS)-[[4-[[2-(4-吗啉代)乙基]氨基羰基]苯基羰基]-L-缬氨酰基-L-脯氨酰基]氨基-1，1，1-三氟-4-甲基-2-氧代戊烷盐酸盐]",% inhibition of lung hemorrhage,[1]; 1 μg/site intratracheal,13.6%
same,Hemorrhage (OD541nm),[1]; 1 μg/site intratracheal,12.76±1.11 OD541nm
same,% inhibition of lung hemorrhage,[1]; 10 μg/site intratracheal,66.3%
same,Hemorrhage (OD541nm),[1]; 10 μg/site intratracheal,5.372±2.06 OD541nm
same,% inhibition of lung hemorrhage,[1]; 100 μg/site intratracheal,100.0%
same,Hemorrhage (OD541nm),[1]; 100 μg/site intratracheal,0.6476±0.129 OD541nm
same,"ED50, inhibition of lung hemorrhage",[1],4.5 μg/位点
"CC(C)C(NC(=O)[C@@H]1CCCN1C(=O)[C@@H](NC(=O)Nc1ccc(C(=O)NCC(=O)O)cc1)C(C)C)C(=O)C(F)(F)F (stereo partly drawn) [实施例23, 3(RS)-[[4-(羧甲基氨基羰基)苯基氨基羰基]-L-缬氨酰基-L-脯氨酰基]氨基-1，1，1-三氟-2-氧代-4-甲基戊烷] ({Gly-4Abz-CO}-Val-Pro-[ξV]-CF3)",% inhibition of lung hemorrhage,[1]; 1 μg/site intratracheal,16.0%
same,Hemorrhage (OD541nm),[1]; 1 μg/site intratracheal,9.435±0.941 OD541nm
same,% inhibition of lung hemorrhage,[1]; 10 μg/site intratracheal,75.6%
same,Hemorrhage (OD541nm),[1]; 10 μg/site intratracheal,3.412±1.31 OD541nm
same,% inhibition of lung hemorrhage,[1]; 100 μg/site intratracheal,102.1%
same,Hemorrhage (OD541nm),[1]; 100 μg/site intratracheal,0.7258±0.303 OD541nm
same,"ED50, inhibition of lung hemorrhage",[1],3.2 μg/位点
"CC(C)C(NC(=O)CN(C(=O)[C@@H](NC(=O)c1ccc(C(=O)NCC(=O)[O-])cc1)C(C)C)C1Cc2ccccc2C1)C(=O)C(F)(F)F.[Na+] (stereo partly drawn) [实施例27, 3(RS)-[[4-(羧甲基氨基羰基)苯基羰基]-L-缬氨酰基-N-(2-二氢化茚基)甘氨酰基]氨基-1，1，1-三氟-4-甲基-2-氧代戊烷钠盐]",% inhibition of lung hemorrhage,[1]; 1 μg/site intratracheal,24.8%
same,Hemorrhage (OD541nm),[1]; 1 μg/site intratracheal,10.68±1.25 OD541nm
same,% inhibition of lung hemorrhage,[1]; 10 μg/site intratracheal,66.9%
same,Hemorrhage (OD541nm),[1]; 10 μg/site intratracheal,4.878±0.917 OD541nm
same,% inhibition of lung hemorrhage,[1]; 100 μg/site intratracheal,99.8%
same,Hemorrhage (OD541nm),[1]; 100 μg/site intratracheal,0.3451±0.084 OD541nm
same,"ED50, inhibition of lung hemorrhage",[1],3.7 μg/位点
"CC(C)C(NC(=O)CN(C(=O)[C@@H](NC(=O)c1ccc(C(=O)NCCN2CCOCC2)cc1)C(C)C)C1Cc2ccccc2C1)C(=O)C(F)(F)F.Cl (stereo partly drawn) [实施例29, 3(RS)-[[4-[[2-(4-吗啉代)乙基]氨基羰基]苯基羰基]-L-缬氨酰基-N-(2-二氢化茚基)甘氨酰基]氨基-1，1，1-三氟-4-甲基-2-氧代戊烷的盐酸盐]",% inhibition of lung hemorrhage,[1]; 1 μg/site intratracheal,14.9%
same,Hemorrhage (OD541nm),[1]; 1 μg/site intratracheal,12.05±1.95 OD541nm
same,% inhibition of lung hemorrhage,[1]; 10 μg/site intratracheal,43.2%
same,Hemorrhage (OD541nm),[1]; 10 μg/site intratracheal,8.155±1.76 OD541nm
same,% inhibition of lung hemorrhage,[1]; 100 μg/site intratracheal,69.4%
same,Hemorrhage (OD541nm),[1]; 100 μg/site intratracheal,4.545±1.49 OD541nm
same,"ED50, inhibition of lung hemorrhage",[1],17.9 μg/位点
